Measured values as given in article PMC4476283 (Biochemistry, 2015).
In brackets after ≈: the same amount, converted by molar mass. Marks after values point to notes of the source that are not given here.

Legend:
OXA-24/40 = details: ref Kaitany et al. [13], cited from earlier work; for Ks (competition kinetics with ampicillin as reporter substrate): from IC50 by Cheng-Prusoff; for Km: 50 mM NaH2PO4, 25 mM NaHCO3, pH 7.4, 25°C
OXA-225 (OXA-23 P225S) = OXA-225 (OXA-23 P225S) (Acinetobacter baumannii, UniProt Q9L4P2, P225S); test: Steady-state kinetic analysis of β-lactam hydrolysis by OXA-225; assay type: biochemical; details: for kcat / Km / Ks (competition kinetics with ampicillin as reporter substrate): OXA-225; for Km: 50 mM NaH2PO4, 25 mM NaHCO3, pH 7.4, 25°C; for Ks (competition kinetics with ampicillin as reporter substrate): from IC50 by Cheng-Prusoff
OXA-23 = details: ref Kaitany et al. [13], cited from earlier work; for Ks (competition kinetics with ampicillin as reporter substrate): from IC50 by Cheng-Prusoff; for Km: 50 mM NaH2PO4, 25 mM NaHCO3, pH 7.4, 25°C
[1] = tested on: OXA-160 (OXA-24/40 P227S); assay type: biochemical, Acinetobacter baumannii; details: for kcat / Km / Ks (competition kinetics with ampicillin as reporter substrate): OXA-160; for Km: 50 mM NaH2PO4, 25 mM NaHCO3, pH 7.4, 25°C; for Ks (competition kinetics with ampicillin as reporter substrate): from IC50 by Cheng-Prusoff
[2] = tested on: A. baumannii strain that yielded OXA-160; details: A. baumannii strain from which OXA-160 was derived; cited from earlier work
[3] = conversion of OXA-24/40 to OXA-160

Row | SMILES | hydrolytic activity (in words) (OXA-24/40) | kcat (OXA-24/40) [s⁻¹] | kcat (OXA-225 (OXA-23 P225S)) [s⁻¹] | Km (OXA-225 (OXA-23 P225S)) [µM] | hydrolytic activity (in words) (OXA-23) | kcat (OXA-23) [s⁻¹] | kcat [1] [s⁻¹] | Km [1] [µM] | Ks (competition kinetics with ampicillin as reporter substrate) (OXA-24/40) | Ks (competition kinetics with ampicillin as reporter substrate) (OXA-225 (OXA-23 P225S)) | Ks (competition kinetics with ampicillin as reporter substrate) (OXA-23) | Ks (competition kinetics with ampicillin as reporter substrate) [1] | decrease in kcat/Km [1, 3] [%] | Km (OXA-24/40) [µM] | gain (increase) in kcat/Km from the P→S substitution (OXA-225 (OXA-23 P225S); OXA-225 compared to OXA-23) | Km (OXA-23) [µM] | gain in kcat/Km from the P→S substitution ([1]; OXA-160 compared to OXA-24/40) | MIC [2] [µg/mL] | increase in kcat/Km [1, 3] [%]
1 | CC(C)(O/N=C(\C(=O)N[C@@H]1C(=O)N2C(C(=O)[O-])=C(C[n+]3ccccc3)CS[C@H]12)c1csc(N)n1)C(=O)O [Ceftazidime, ceftazidime] | no activity | <0.02 | 1.4 ± 0.1 | 1400 | no activity | <0.02 | >0.80 | > 3000 |  |  |  |  |  |  |  |  |  |  | 
2 | C[C@@H](O)[C@H]1C(=O)N2C(C(=O)O)=C(SCCN=CN)C[C@H]12 [Imipenem, imipenem] |  | 2.1 ± 0.1 | 0.39 ± 0.01 |  |  | 0.49 ± 0.01 | 0.12 ± 0.01 |  | 0.68 ± 0.09 ^b µM | 0.20 ± 0.02 ^b µM | 0.20 ± 0.02 ^b µM | 0.043 ± 0.005 ^b µM | 10 |  |  |  |  |  | 
3 | CC1(C)S[C@@H]2[C@H](NC(=O)[C@H](N)c3ccccc3)C(=O)N2[C@H]1C(=O)O [Ampicillin, ampicillin] |  | 480 ± 20 | 150 ± 10 | 12 ± 1 |  | 460 ± 10 | 93 ± 2 | 13 ± 1 |  |  |  |  |  | 180 ± 20 | ~ 2 fold | 82 ± 9 | ~ 3 fold |  | 
4 | CO/N=C(\C(=O)N[C@@H]1C(=O)N2C(C(=O)O)=C(CSc3nc(=O)c(=O)[nH]n3C)CS[C@H]12)c1csc(N)n1 [Ceftriaxone, ceftriaxone] |  | 0.035 ± 0.001 | 0.051 ± 0.002 |  |  | 0.021 ± 0.001 | 0.24 ± 0.01 | 14 ± 0.8 |  | 0.48 ± 0.05 ^b µM |  |  |  | 110 ± 10 |  | 5.4 ± 0.5 |  |  | 
5 | C[C@H]1[C@H](NC(=O)/C(=N\OC(C)(C)C(=O)O)c2csc(N)n2)C(=O)N1S(=O)(=O)O [Aztreonam, aztreonam] |  | >0.3 | 0.79 ± 0.03 | 13 ± 2 |  | 0.24 ± 0.01 | 2.7 ± 0.2 |  |  |  |  |  |  | > 1500 |  | 2400 |  | 128 (≈ 294 µM) | 
6 | C[C@@H](O)[C@H]1C(=O)N2C(C(=O)O)=C(S[C@@H]3CN[C@H](CNS(N)(=O)=O)C3)[C@H](C)[C@H]12 [Doripenem, doripenem] |  | 0.074 ± 0.001 | 0.026 ± 0.002 |  |  | 0.028 ± 0.003 | 0.064 ± 0.001 |  | 0.024 ± 0.003 ^b µM | 0.027 ± 0.005 ^b µM | 0.018 ± 0.002 ^b µM | 0.014 ± 0.003 ^b µM |  |  |  |  |  |  | 40
7 | C[C@@H](O)[C@H]1C(=O)N2C(C(=O)O)=C(S[C@@H]3CN[C@H](C(=O)N(C)C)C3)[C@H](C)[C@H]12 [meropenem] |  |  |  |  |  |  |  |  |  |  |  |  |  |  |  |  |  | 16 (≈ 41.7 µM) | 
8 | CO/N=C(\C(=O)N[C@@H]1C(=O)N2C(C(=O)[O-])=C(C[N+]3(C)CCCC3)CS[C@H]12)c1csc(N)n1 [cefepime] |  |  |  |  |  |  |  |  |  |  |  |  |  |  |  |  |  | 64 (≈ 133 µM) | 
9 | CO/N=C(\C(=O)N[C@@H]1C(=O)N2C(C(=O)O)=C(COC(C)=O)CS[C@H]12)c1csc(N)n1 [Cefotaxime, cefotaxime] |  | 0.38 ± 0.01 | 3.2 ± 0.2 | 100 ± 20 |  | 5.5 ± 0.1 | 0.41 ± 0.01 | 170 ± 5 |  |  |  |  |  | 750 ± 70 |  | 340 ± 30 |  |  | 
